Here are results for six compounds from ChEMBL document CHEMBL1201862, “PubChem BioAssay data set” (2004).

The source made the active and inactive calls.

The target in assay [1] is G-protein coupled receptor 55 (Homo sapiens, UniProt Q9Y2T6). Kind of assay: inhibition of LPI-stimulated GPR55 beta-arrestin translocation – imaging, U2OS, beta-arrestin-GFP, LPI agonist, primary screen (AID 2013).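 Further: antagonist potency measured as reduced agonist-driven arrestin aggregation.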 The format is functional.
Sequence of G-protein coupled receptor 55 (Q9Y2T6 whole entry): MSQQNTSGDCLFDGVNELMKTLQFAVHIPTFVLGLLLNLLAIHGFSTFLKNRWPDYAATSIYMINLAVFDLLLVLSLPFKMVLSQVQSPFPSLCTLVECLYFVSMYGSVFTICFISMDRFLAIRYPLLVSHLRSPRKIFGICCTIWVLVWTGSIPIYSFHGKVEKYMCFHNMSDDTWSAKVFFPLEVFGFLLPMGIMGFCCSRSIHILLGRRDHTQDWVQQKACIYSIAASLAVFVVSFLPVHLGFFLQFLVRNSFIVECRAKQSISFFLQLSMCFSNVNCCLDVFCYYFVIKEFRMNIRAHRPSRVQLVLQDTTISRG
The nature of assay [2]: HPDE-C7 pancreatic duct cell viability loss – fluorescence, HTS (AID 430). The format is functional, cell-based. The following applies: Homo sapiens.
The nature of assay [3]: viability loss of HPDE-C7K cells – cell-based, fluorescence, HTS, primary screen (AID 431). The format is functional. The following applies: Homo sapiens.
A short description of assay [4]: viability of PTEN-deleted HCT116 cells – cell-based, HCT116 PTEN knockout, dose response (AID 1047).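 Further: HCT116 colon tumor cells with PTEN knocked out; cells exposed to compound for 60 hours before readout; potency for loss of cell viability measured by luminescence.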 The format is functional.
Assay [5] can be described thus: viability of HCT116 lacking mutant beta-catenin – cell-based, human colon tumor, dose response (AID 1045).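 Further: HCT116 colon tumor cells with beta catenin knocked out; cells exposed to compound for 60 hours.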 Format: functional.
Assay [6] is described as follows: blockers of HIV-1 envelope-mediated cell-cell fusion – cherry-pick, dose response (AID 652057). Format: functional, cell-based.
Assay [7] is described as follows: blockers of HIV-1 ZM109 envelope-driven cell-cell fusion – HeLa effector, CEM target cells, luciferase, cherry-pick, dose response (AID 652058).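 Further: luciferase signal from HIV-1 Env mediated cell-cell fusion of effector and target cells.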 The format is functional, cell-based.
Assay [8] in a line: off-target signal loss in HeLa-CEM21 co-culture – HeLa F-luc CTL cells, cherry-picked, counter-screen for HIV-1 Env fusion inhibitor project, dose response (AID 652040).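 Further: potency for signal decrease marking cytotoxic or nonspecific inhibition.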 The format is functional, cell-based.
Assay [9] can be described thus: HIV-1 AD8 envelope cell-cell fusion blockers – cherry-pick, dose response (AID 652062).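 Further: luciferase signal from cell-cell fusion driven by HIV-1 clade B AD8 Env; potency is for inhibitors of fusion seen as a drop in luminescence.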 The format is functional, cell-based.
Assay [10] concerns the target T1, Leucine aminopeptidase (Plasmodium falciparum 3D7, UniProt Q8IL11).
T1 sequence (Q8IL11 whole entry): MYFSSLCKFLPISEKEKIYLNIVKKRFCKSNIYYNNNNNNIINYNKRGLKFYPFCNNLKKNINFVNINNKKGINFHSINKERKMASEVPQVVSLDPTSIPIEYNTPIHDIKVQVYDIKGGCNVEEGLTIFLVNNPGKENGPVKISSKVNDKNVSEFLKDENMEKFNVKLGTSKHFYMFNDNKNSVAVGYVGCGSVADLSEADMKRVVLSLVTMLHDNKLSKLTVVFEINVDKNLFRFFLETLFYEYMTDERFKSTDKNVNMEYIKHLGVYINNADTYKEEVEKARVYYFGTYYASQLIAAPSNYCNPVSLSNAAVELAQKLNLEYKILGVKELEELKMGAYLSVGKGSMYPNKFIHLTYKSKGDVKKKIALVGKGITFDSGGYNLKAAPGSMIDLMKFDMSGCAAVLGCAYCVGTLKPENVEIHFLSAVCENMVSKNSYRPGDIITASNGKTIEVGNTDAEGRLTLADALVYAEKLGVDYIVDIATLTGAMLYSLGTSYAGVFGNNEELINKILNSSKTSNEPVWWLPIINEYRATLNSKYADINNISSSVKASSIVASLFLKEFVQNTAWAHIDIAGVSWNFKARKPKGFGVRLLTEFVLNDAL
Nature of the assay: P. falciparum M17LAP inhibitors, primary screen, biochemical, fluorogenic H-Leu-NHMec substrate, 1536-well (AID 1619). The format is functional.

Assay [11] deals with Aspartyl aminopeptidase (Plasmodium falciparum 3D7, UniProt Q8I2J3). Kind of assay: Counterscreen for inhibitors of M1 and M17 aminopeptidases: QFRET-based biochemical high throughput dose response assay for inhibitors of the Plasmodium falciparum M18 Aspartyl Aminopeptidase (PFM18AAP). [Related PubChem assays: 1619 (Screening assay (M17LAP inhibitors).), 1445 (Screening assay (M1AAP inhibitors).)]. A general note: A counterscreen serves to expose hits that act by an unwanted route or on another target.
Sequence of Aspartyl aminopeptidase (Q8I2J3 whole entry): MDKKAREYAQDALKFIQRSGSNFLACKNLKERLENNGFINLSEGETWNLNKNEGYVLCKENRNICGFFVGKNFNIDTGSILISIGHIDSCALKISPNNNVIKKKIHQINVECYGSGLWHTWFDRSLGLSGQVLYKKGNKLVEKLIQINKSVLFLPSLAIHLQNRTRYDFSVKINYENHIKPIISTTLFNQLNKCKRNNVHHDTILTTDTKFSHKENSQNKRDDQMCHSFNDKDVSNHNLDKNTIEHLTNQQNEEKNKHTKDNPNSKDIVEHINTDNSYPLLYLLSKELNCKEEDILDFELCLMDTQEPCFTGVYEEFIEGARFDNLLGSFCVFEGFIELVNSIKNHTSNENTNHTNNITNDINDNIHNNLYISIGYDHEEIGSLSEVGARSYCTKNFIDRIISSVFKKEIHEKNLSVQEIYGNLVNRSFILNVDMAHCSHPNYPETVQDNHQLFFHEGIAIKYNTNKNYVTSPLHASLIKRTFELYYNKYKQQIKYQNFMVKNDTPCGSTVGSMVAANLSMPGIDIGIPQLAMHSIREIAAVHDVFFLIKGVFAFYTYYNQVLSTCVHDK

In assay [12] the target is Procathepsin L (Homo sapiens, UniProt P07711). Nature of the assay: CTSL1 protease inhibition – biochemical, QFRET, 1536-well, counter-screen for M1/M17 aminopeptidase inhibitor project, dose response (AID 2214).
Sequence of Procathepsin L (P07711 whole entry): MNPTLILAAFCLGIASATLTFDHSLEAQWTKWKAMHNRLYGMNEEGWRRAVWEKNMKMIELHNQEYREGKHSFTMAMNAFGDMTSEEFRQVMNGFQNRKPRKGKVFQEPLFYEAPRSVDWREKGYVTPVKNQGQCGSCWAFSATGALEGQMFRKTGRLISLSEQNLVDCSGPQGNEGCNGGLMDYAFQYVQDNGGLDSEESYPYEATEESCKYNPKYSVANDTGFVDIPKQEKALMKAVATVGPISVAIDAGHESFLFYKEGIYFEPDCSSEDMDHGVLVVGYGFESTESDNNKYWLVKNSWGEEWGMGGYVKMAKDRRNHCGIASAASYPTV
Assay [13] has as its target T2, Replicative DNA helicase DnaB (Mycobacterium tuberculosis, UniProt P9WMR3).
T2 sequence (P9WMR3 whole entry): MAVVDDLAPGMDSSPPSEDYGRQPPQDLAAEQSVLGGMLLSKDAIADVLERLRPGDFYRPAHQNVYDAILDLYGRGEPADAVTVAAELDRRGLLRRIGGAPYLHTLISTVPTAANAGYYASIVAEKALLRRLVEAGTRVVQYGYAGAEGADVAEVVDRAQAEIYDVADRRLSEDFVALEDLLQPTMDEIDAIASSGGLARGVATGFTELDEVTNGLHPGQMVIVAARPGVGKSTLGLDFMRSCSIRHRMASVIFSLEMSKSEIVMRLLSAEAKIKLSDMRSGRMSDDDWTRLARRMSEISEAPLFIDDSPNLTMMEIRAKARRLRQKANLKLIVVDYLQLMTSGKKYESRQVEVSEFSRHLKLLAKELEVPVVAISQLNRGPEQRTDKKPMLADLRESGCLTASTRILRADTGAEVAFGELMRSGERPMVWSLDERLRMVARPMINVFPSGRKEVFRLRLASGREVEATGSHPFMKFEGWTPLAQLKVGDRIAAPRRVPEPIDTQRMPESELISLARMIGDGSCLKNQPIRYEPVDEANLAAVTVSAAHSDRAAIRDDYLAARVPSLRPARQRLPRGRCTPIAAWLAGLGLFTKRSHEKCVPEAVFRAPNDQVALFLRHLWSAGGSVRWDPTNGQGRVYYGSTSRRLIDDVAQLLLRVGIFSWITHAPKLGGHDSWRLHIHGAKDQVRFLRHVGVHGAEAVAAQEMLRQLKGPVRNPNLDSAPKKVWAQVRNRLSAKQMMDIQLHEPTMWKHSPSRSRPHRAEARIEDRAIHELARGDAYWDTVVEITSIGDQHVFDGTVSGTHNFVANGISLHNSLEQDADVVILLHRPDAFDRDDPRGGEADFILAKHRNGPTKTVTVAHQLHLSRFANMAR
Kind of assay: DnaB intein splicing inhibitors, dose response, biochemical, cell-free fluorescence (AID 449749). The format is functional.

The target in assay [14] is T3, Protein RecA (Mycobacterium tuberculosis, UniProt P9WHJ3).
T3 sequence (P9WHJ3 whole entry): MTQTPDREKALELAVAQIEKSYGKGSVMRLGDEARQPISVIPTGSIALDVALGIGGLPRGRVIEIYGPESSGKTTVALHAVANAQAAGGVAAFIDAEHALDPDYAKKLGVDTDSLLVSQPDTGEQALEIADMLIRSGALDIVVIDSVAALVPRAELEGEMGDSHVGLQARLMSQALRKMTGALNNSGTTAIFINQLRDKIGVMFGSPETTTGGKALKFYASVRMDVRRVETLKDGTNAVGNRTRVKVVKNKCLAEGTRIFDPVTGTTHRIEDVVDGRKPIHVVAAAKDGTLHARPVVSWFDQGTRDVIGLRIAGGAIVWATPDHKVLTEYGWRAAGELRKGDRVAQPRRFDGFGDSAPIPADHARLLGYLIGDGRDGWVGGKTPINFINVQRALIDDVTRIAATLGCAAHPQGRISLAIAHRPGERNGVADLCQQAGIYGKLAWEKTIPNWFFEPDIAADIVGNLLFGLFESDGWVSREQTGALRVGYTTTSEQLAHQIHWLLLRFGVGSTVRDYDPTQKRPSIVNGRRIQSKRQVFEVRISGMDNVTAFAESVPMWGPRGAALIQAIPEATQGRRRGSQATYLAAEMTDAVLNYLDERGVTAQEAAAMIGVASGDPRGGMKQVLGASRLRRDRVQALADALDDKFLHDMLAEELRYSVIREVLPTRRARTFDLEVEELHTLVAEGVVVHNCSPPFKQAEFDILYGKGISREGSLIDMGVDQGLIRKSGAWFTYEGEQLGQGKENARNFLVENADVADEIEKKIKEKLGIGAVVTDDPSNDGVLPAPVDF
Kind of assay: Fluorescence Cell-Free Homogeneous Dose Retest to Identify Inhibitors of RecA-Intein Splicing Activity. [Related pubchem assays (depositor defined):AID2097, AID2223, AID489010, AID492950]. Format: functional.

In assay [15] the target is Large T antigen (Simian virus 40, UniProt P03070). The format is functional, Betapolyomavirus macacae.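 Further: Confirmatory-stage PubChem screen for compounds that inhibit SV40 T antigen.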
Sequence of Large T antigen (P03070 whole entry): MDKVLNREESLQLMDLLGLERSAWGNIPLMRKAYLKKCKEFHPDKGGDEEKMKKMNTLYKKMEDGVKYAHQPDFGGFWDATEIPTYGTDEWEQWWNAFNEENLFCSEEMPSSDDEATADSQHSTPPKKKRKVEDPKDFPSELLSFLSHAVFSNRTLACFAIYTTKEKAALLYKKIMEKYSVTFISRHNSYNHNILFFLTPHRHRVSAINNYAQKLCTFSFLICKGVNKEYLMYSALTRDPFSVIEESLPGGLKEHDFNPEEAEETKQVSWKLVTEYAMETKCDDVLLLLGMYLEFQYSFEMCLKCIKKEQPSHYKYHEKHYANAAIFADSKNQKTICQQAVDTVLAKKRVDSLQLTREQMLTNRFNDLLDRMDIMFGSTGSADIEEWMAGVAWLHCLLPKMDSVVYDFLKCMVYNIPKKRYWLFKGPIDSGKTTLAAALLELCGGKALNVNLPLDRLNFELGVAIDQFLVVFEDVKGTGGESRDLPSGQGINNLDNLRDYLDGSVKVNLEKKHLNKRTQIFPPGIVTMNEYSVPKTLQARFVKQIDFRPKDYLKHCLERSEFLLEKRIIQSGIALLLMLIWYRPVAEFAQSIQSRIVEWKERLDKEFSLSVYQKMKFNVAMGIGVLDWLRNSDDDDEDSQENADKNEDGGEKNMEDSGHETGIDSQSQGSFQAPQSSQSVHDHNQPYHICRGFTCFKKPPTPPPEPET
Assay [16] has as its target Protein-tyrosine kinase 2-beta (Homo sapiens, UniProt Q14289).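 Further: potency of inhibitors of PYK2 kinase phosphorylation of poly-GT substrate.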
Assay [17] concerns the target Neuropeptides B/W receptor type 1 (Homo sapiens, UniProt P48145). Kind of assay: Fluorescence-based dose response cell-based high throughput screening assay to identify antagonists of the G-protein coupled receptor 7 (GPR7). [Related pubchem assays: 1952 (Screening assay (GPR7 antagonists).), 1880 (Summary AID.)]. Format: functional.
In assay [18] the target is T4, Neuropeptide Y receptor type 2 (Homo sapiens, UniProt P49146).
T4 sequence (P49146 whole entry): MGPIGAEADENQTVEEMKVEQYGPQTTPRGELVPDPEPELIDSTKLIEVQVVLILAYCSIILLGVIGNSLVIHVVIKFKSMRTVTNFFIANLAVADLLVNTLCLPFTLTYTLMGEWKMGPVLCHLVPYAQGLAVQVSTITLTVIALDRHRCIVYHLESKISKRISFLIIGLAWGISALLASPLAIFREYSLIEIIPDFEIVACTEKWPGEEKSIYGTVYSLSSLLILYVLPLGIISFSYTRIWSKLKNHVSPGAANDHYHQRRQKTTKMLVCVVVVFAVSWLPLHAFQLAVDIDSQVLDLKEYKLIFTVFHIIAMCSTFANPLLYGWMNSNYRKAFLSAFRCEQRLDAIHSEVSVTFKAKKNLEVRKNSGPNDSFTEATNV
Kind of assay: IC50 for human NPY-Y2 blockade – cell-based, counter-screen for NPY-Y1 antagonist project, dose response (AID 1278). Format: functional.

Assay [19] has as its target Melanin-concentrating hormone receptor 1 (Homo sapiens, UniProt Q99705). Kind of assay: Fluorescence-based counterscreen for antagonists of the G-protein coupled receptor 7 (GPR7): cell-based high throughput dose response assay to identify antagonists of the melanin-concentrating hormone receptor 1 (MCHR1). The format is functional.
The target of assay [20] is T5, Neuropeptide Y receptor type 1 (Homo sapiens, UniProt P25929).
T5 sequence (P25929 whole entry): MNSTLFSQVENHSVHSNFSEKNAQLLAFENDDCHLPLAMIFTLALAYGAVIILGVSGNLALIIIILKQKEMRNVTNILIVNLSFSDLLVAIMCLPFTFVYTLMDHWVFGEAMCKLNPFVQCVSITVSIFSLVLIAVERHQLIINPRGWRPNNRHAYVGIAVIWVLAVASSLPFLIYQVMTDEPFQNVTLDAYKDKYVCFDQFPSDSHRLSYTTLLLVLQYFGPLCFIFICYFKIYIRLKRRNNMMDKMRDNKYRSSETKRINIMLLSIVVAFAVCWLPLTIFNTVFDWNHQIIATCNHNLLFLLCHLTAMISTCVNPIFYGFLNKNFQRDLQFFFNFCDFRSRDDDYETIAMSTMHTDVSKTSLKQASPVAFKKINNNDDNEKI
Nature of the assay: IC50 of human NPY-Y1 blockers – cell-based, dose response (AID 1277). Format: functional.

Assay [21] addresses T6, Estrogen receptor beta (Homo sapiens, UniProt Q92731).
The target of assay [22] is T6, Estrogen receptor beta. Kind of assay: blockers of SRC-3 recruitment to ERβ – biochemical, ELISA, streptavidin-HRP readout, orthogonal assay, confirmation (AID 1060).
Assay [23] concerns the target Potassium voltage-gated channel subfamily KQT member 2 (Rattus norvegicus, UniProt O88943, W236L). Kind of assay: potentiation of rat KCNQ2 current – cell-based, automated electrophysiology, mechanism study for KCNQ2 potentiator project, dose response (AID 2603). The format is functional.
In assay [24] the target is T7, Calpain-2 catalytic subunit (Sus scrofa, UniProt P43367).
T7 sequence (P43367 whole entry): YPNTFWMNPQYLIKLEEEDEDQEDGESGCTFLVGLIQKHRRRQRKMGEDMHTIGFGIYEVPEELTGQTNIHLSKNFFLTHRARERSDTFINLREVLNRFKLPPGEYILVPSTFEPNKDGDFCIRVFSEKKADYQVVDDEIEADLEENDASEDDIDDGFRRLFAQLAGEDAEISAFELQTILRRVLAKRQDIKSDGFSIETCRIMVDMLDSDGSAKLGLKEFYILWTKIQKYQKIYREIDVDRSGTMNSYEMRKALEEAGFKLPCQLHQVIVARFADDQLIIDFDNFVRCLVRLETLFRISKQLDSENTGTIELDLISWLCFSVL
Kind of assay: m-calpain protease blockers, concentration series – biochemical, fluorogenic peptide substrate, dose response (AID 1420). Format: functional.

T6 sequence (Q92731 whole entry): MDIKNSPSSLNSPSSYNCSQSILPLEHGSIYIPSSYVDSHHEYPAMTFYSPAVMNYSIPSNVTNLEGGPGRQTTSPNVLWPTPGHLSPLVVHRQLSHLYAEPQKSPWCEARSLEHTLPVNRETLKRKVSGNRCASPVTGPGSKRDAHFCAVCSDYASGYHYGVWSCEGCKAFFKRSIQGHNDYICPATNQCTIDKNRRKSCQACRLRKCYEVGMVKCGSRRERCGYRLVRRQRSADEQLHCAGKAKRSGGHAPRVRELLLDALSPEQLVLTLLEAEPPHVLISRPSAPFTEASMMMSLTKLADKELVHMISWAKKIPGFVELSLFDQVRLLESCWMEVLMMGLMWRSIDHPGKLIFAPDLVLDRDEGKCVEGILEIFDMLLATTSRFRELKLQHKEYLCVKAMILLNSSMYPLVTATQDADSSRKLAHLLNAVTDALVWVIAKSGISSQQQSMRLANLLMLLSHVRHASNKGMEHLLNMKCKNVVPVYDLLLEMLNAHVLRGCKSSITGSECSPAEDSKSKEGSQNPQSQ
Sequence of Protein-tyrosine kinase 2-beta (Q14289 whole entry): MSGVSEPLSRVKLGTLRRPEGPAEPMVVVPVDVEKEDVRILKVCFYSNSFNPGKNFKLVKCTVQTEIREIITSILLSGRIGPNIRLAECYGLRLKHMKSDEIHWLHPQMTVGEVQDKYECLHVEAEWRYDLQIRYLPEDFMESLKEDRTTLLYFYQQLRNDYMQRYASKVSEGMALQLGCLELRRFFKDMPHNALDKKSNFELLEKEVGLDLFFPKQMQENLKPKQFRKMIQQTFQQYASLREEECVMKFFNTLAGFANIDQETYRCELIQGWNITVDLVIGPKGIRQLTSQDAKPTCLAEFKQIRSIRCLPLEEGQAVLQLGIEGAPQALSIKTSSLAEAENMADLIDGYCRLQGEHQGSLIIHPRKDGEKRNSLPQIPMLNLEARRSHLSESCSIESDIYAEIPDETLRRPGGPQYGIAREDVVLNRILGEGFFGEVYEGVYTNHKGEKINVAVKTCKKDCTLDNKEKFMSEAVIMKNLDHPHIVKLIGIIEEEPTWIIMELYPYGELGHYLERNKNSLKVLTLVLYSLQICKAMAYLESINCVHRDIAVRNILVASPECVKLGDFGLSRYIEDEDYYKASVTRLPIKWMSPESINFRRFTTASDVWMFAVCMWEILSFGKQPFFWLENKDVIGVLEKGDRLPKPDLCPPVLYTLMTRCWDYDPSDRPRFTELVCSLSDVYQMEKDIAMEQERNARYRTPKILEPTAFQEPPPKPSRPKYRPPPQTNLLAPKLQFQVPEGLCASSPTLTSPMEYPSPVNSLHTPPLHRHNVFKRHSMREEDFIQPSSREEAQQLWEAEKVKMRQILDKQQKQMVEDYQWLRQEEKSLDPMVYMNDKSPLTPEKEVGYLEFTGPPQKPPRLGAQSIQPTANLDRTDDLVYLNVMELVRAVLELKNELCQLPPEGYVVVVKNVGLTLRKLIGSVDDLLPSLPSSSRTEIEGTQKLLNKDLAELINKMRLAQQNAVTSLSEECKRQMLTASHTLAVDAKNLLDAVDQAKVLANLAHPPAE
Sequence of Neuropeptides B/W receptor type 1 (P48145 whole entry): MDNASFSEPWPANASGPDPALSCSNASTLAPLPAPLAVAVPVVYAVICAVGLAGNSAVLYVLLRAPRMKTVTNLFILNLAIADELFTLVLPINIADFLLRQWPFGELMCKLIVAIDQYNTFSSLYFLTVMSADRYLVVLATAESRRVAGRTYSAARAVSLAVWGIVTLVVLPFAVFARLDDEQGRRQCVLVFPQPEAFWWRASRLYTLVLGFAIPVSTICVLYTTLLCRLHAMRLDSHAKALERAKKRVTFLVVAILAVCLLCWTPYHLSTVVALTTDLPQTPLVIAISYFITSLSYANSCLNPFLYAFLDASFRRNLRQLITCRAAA
Sequence of Potassium voltage-gated channel subfamily KQT member 2 (O88943 whole entry W236L): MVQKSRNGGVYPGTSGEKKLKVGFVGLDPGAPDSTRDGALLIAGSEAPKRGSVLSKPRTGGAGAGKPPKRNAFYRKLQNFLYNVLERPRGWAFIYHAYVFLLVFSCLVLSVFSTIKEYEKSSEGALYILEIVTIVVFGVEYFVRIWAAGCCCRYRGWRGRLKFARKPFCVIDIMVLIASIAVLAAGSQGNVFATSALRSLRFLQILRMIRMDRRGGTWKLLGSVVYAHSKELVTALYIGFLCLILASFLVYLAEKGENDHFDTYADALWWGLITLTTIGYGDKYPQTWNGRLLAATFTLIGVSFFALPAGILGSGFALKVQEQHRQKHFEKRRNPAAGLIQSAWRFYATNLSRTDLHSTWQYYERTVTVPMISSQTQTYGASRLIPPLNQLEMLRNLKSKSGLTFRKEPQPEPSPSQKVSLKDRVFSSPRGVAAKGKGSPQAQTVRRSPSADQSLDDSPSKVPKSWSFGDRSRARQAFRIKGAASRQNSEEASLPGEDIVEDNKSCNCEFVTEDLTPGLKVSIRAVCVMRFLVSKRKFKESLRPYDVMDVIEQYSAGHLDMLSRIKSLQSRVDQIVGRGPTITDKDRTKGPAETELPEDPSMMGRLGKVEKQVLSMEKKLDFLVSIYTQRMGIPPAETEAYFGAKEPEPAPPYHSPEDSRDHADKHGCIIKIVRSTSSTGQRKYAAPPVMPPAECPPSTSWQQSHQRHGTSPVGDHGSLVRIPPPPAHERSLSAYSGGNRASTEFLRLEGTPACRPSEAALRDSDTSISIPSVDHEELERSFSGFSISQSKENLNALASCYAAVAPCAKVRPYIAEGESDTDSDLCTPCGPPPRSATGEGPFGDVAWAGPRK
Sequence of Melanin-concentrating hormone receptor 1 (Q99705 whole entry): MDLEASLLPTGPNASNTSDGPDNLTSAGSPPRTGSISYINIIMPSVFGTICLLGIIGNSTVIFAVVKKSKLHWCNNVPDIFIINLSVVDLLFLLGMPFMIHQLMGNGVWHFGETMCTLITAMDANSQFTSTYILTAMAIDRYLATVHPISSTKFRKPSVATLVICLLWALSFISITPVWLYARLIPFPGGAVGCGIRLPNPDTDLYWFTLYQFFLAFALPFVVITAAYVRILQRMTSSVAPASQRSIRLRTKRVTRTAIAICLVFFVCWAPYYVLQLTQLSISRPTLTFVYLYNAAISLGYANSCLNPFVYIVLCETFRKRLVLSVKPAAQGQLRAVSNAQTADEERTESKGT

On to `COc1ccc(CCN2C(=O)c3[nH]nc(-c4ccccc4O)c3C2c2ccc(C)cc2)cc1OC` (centres undefined), for which, in assay [1], the IC50 was 2.9 µM (active). Further, the EC50 in assay [2] was 8.11 µM (active); in assay [3], 9.9 µM (active); in [4], 21.1 µM (active); in assay [5] it was 21.6 µM (active). The AC50 in assay [6] is 2.11 µM (active); in [7] it was 2.58 µM (active); in [8], 3.34 µM (active); in [9] it was 6.57 µM (active).

On to `O=[N+]([O-])c1cccc(-c2cc(O)n[nH]2)c1`, for which the IC50 is 6.99 µM (active) in assay [10], > 73.5 µM (not active) in assay [11] and > 59.6 µM (not active) in assay [12]. For the same compound, the AC50 in assay [13] was 7.14 µM (active). Moreover, the EC50 in assay [14] was 2.57 µM (active).

Regarding `CCc1ccc2nc3n[nH]c(N)c3cc2c1`, the figures for the IC50 in assay [15] and in assay [16] were 13.5 µM (active) and 24.9 µM (not active), respectively.

Regarding `O=C(NC1CCCCC1)C(c1ccncc1)N(Cc1ccc2c(c1)OCO2)C(=O)c1cnsn1` (centres undefined), the IC50 in assay [17] was > 43.8 µM (not active); in assay [18] it was > 35 µM (not active); in [19], > 43.8 µM (not active); in assay [20] it was 32.2 µM (not active).

In the case of `CC1CCCCN1CC(=O)Nc1sc2c(c1C#N)CCC2` (centres undefined), the half-maximal inhibitory concentration (IC50) in assay [21] and in assay [22] was > 50 µM (not active) each time.

Turning to `CCCCn1c(-c2csc(C(C)C)c2)n[nH]c1=S`, the concentration giving a half-maximal response (EC50) in [23] is 308 µM (active). Further, the IC50 in [24] is reported as > 50 µM (not active).

For orientation: IC50 means the concentration that inhibits the measured activity by half. The EC50 is the concentration at which the effect is half-maximal. As a reminder, the AC50 is the midpoint of the concentration-response curve, whichever way the signal moves.
